Source: patent publication US8476408B2, “Unacylated ghrelin and analogs as therapeutic agents for vascular remodeling in diabetic patients and treatment of cardiovascular disease” (Alize Pharma SAS, priority 2008, dated 2013)
Where no end group is shown, it is not given here.

Tested on: CAC membranes
Assay: Competition binding with [125I-Tyr4]-UAG on CAC membranes
Design: species or system human
Details: 100 nM unlabelled competitor, radioligand 0.25 nM; FIG. 5A
From the text: The specific binding of [^125I-Tyr^4]-UAG (calculated as difference between binding in the absence, control, and in the presence of UAG) represented about 75% of the control value (P<0.001) and was detected either on fresh (0.25 and 0.26 fmol) or frozen-thawed (0.20 and 0.33 fmol) CAC membranes from two different cell preparations.

- inhibition of binding of [125I-Tyr4]-UAG to CAC membranes: inhibited
Substance: 1-NH2Gly-Ser-Ser-Phe-Leu-Ser-Pro-Glu-His-Gln-Arg-Val-Gln-Gln-Arg-Lys-Glu-Ser-Lys-Lys-Pro-Pro-Ala-Lys-Leu-Gln-Pro-Arg-28 (GSSFLSPEHQRVQQRKESKKPPAKLQPR; ends and bridges not checked; listed as Homo sapiens) [UAG]
